Structures can show the parent of a compound that is named as a salt.
System: HeLa
Assay: cell viability (CellTiter-Glo) relative to median of lowest-dilution wells of all drugs (fraction); higher = more viable cells
Experimental: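 HeLa control and CRISPR DDX11 knockout cells were seeded in 384-well plates and incubated for 72 h with each of 64 […] drugs at six concentrations. Viability was read with CellTiter-Glo and normalised to the median of the lowest (6th) dilution wells of all drugs. Two biological replicates (BR1, BR2) are averaged; the concentration unit is not stated.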

COC1=CC(c2cc3ccccc3[nH]2)=N/C1=C\c1[nH]c(C)cc1C [Obatoclax mesylate]
Conditions	cell viability
drug concentration (unit not stated): 0.04, genotype: DDX11 knockout	1.07
drug concentration (unit not stated): 0.04, genotype: control (DDX11 wild type)	1.01
drug concentration (unit not stated): 0.12, genotype: DDX11 knockout	0.872
drug concentration (unit not stated): 0.12, genotype: control (DDX11 wild type)	1.05
drug concentration (unit not stated): 0.37, genotype: DDX11 knockout	0.56
drug concentration (unit not stated): 0.37, genotype: control (DDX11 wild type)	0.728
drug concentration (unit not stated): 1.11, genotype: DDX11 knockout	0.307
drug concentration (unit not stated): 1.11, genotype: control (DDX11 wild type)	0.415
drug concentration (unit not stated): 3.33, genotype: DDX11 knockout	0.25
drug concentration (unit not stated): 3.33, genotype: control (DDX11 wild type)	0.344
drug concentration (unit not stated): 10, genotype: DDX11 knockout	0.141
drug concentration (unit not stated): 10, genotype: control (DDX11 wild type)	0.0791

Source: the supplement of paper PMC8092582
